According to US20240158418A1 (C4 Therapeutics, Inc., priority 2021, published 2024):
Like-named read-outs stand apart in the source and are kept apart here.

Legend:
[1] = test system: pERK; experiment: Western blot NCI-H3255, Compound 1 with or without osimertinib: phospho-ERK; assay type: cell-based, human; conditions: NCI-H3255, six hours, 0-1,500 nM, presence and absence of 1,500 nM osimertinib
Text: The compound bearing solutions were formulated to achieve a 0.1% final concentration of DMSO. […] Antibodies used in western blot were purchased from the following vendors: EGFR-L858R specific antibody (CST 3197), pY1068 EGFR (CST 2234), pERK (CST 4370), ERK (CST 4695), vinculin (Millipore 05-386).

[2] = test system: BaF3 cells expressing EGFR L858R-L792H; experiment: Ba/F3 EGFR cell viability (CellTiter-Glo), L858R-L792H; assay type: cell-based; conditions: Mus musculus, read-out: CTGlo (GI50)
Text: (§1) RPMI 1640 media, cell culture flasks, and 384-well microplates were purchased from VWR (Radnor, PA, USA). Fetal bovine serum (FBS) was purchased from Life Technologies (Carlsbad, CA, USA) and CellTiter-Glo® was purchased from Promega (Madison, WI, USA). The Ba/F3 parental cell line was purchased from CrownBio (Santa Clara, CA). BaF3 cell lines ectopically expressing the EGFR mutations L858R, L858R-T790M, L858R-C797S, and L858R-T790M-C797S were purchased from CrownBio and EGFR mutations L858R-L718Q, L858R-T790M-L718Q, L858R-L792H, and L858R-T790M-L792H, were purchased from Signosis (Santa Clara, CA).
(§2) Cell viability was assessed based on the quantification of ATP using the CellTiter-Glo® assay (Promega, Madison, WI, USA). To determine the effect of compounds on cell viability, all Ba/F3 cell lines were plated at a cell density of 2000 cells/well in 384-well plates using RPMI 1640+10% FBS and treated with compounds of interest using a 10-point half-log dilution series in duplicate for 72 hours, with the highest dose set at […]. CellTiter-Glo® reagent was then added and luminescence signals were measured using an EnVision™ Multimode plate reader (Perkin Elmer, Santa Clara, CA). For data normalization, cells untreated with the test compounds at Time=72 hours were set to 100% (equivalent to maximal cell growth after 72 hours); cells untreated with the test compounds at Time=0 hours were set to 0% (equivalent to cytostasis); and media-only wells were set to −100% (equivalent to complete cytotoxicity). % Viability was determined by normalizing the signal with positive and DMSO treated negative controls on the same microtiter plate. The half-maximal inhibition of cell growth (GI50) is computed from where the fitted curve crosses 50% while the half-maximal lethal dose (LD50) is computed from where the fitted curve crosses −50%.

[3] = target: T1, EGFR WT (Homo sapiens, UniProt P00533); experiment: EGFR degradation, Total EGFR (pan-EGFR) HTRF, A431; assay type: cell-based; conditions: A431 (wild-type), 6 hours; read-out: tEGFR DC50
T1 construct: A431 (harboring EGFR wildtype) was purchased from ATCC; host or cells: A431
T1 sequence (P00533 25-1210): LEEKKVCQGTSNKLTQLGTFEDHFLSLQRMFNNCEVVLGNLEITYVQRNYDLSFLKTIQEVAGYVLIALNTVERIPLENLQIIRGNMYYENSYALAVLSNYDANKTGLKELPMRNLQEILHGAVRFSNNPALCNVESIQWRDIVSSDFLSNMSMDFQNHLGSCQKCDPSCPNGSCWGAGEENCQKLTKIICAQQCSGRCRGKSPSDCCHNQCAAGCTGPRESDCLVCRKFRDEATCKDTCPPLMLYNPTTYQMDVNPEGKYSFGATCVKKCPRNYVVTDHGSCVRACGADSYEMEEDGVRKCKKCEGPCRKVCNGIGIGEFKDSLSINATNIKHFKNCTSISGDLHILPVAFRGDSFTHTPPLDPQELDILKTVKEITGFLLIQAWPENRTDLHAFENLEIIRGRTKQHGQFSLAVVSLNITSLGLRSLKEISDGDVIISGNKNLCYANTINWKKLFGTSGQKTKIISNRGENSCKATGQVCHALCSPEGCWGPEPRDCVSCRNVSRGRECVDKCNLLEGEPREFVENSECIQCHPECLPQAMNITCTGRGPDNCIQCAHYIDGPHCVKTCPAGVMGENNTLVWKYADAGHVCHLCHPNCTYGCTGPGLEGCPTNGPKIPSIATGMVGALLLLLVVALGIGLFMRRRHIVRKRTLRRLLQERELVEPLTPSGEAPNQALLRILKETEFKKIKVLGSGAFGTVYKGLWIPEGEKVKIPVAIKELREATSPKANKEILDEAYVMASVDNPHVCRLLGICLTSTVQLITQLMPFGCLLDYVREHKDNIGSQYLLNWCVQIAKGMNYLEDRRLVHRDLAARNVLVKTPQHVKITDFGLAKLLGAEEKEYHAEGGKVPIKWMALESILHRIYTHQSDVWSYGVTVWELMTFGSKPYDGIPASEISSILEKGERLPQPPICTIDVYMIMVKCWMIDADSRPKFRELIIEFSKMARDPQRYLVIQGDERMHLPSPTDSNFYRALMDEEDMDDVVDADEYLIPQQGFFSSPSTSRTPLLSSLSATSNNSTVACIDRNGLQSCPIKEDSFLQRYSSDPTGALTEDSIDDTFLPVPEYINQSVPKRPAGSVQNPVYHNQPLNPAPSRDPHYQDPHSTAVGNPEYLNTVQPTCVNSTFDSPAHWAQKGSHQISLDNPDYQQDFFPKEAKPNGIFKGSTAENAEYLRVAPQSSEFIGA
Text: (§3) NCI-H1975 (harboring EGFR heterozygous L858R-T790M mutations) and NCI-H3255 (harboring EGFR heterozygous L858R mutation) were purchased from ATCC and NCI, respectively. NCI-H1975+CS (harboring EGFR heterozygous L858R-T790M-C797S mutations) was generated using CRISPR technology to introduce the additional C797S mutation by Horizon Discovery. A431 (harboring EGFR wildtype) was purchased from ATCC. RPMI 1640 no-phenol red medium and fetal bovine serum (FBS) were purchased from Gibco (Grand Island, NY, USA). Cell culture flasks and 384-well microplates were acquired from VWR (Radnor, PA, USA). Phosphorylated (pY1068) EGFR and Total EGFR (using L858R-specific detection antibody and pan-EGFR antibody for EGFR mutant cell lines and EGFR wild-type cell lines, respectively) HTRF assay kits were purchased from Cisbio (Bedford, MA, USA).
(§4) Degradation of EGFR protein containing L858R mutation or wild-type was determined based on quantification of FRET signal using a Total EGFR (L858R-specific or pan-EGFR detecting) HTRF assay kit. Phospho-EGFR (pEGFR) inhibition was determined based on quantification of FRET signal using a pY1068 EGFR HTRF assay kit. In separate assay plates, test compounds were added to the 384-well plate from a top concentration of 10 μM with 11 points, half log titration in duplicates. For each assay, 12.5 uL of cells suspended in assay media (RPMI 1640 no-phenol red medium+10% FBS) at cell densities indicated for each cell line in Table 8 below were dispensed using a multi-channel pipette to 384-well low volume white HTRF microplates containing a duplicate concentration range of test compounds and DMSO controls. The plates were kept at 37° C. with 5% CO2 for 6 hours and then incubated with either phospho EGFR or Total EGFR HTRF detection antibodies according to the cell line and EGFR mutant being assayed. Cells treated in the absence of the test compound were the negative control. Positive control was set by wells containing all reagents but no cells. FRET signal was acquired on EnVision™ Multilabel Reader (PerkinElmer, Santa Clara, CA, USA). Compound concentration that achieves 50% degradation and inhibition was reported as DC50 and IC50, respectively.

[4] = target: T2, pY1068 EGFR WT (Homo sapiens, UniProt P00533); experiment: Phospho-EGFR (pY1068) inhibition HTRF, A431; assay type: cell-based; conditions: A431 (wild-type), 6 hours; read-out: pEGFR IC50
T2 construct: A431 (harboring EGFR wildtype) was purchased from ATCC; host or cells: A431
T2 sequence (P00533 25-1210): as above
Text: as §3
Degradation of EGFR protein containing L858R mutation or wild-type was determined based on quantification of FRET signal using a Total EGFR (L858R-specific or pan-EGFR detecting) HTRF assay kit. Phospho-EGFR (pEGFR) inhibition was determined based on quantification of FRET signal using a pY1068 EGFR HTRF assay kit. In separate assay plates, test compounds were added to the 384-well plate from a top concentration of 10 μM with 11 points, half log titration in duplicates. […] FRET signal was acquired on EnVision™ Multilabel Reader (PerkinElmer, Santa Clara, CA, USA). […]

[5] = test system: BaF3 cells expressing EGFR L858R-T790M-L792H; experiment: Ba/F3 EGFR cell viability (CellTiter-Glo), L858R-T790M-L792H; assay type: cell-based; conditions: Mus musculus, read-out: CTGlo (GI50)
Text: as §1, §2

[6] = target: T3, EGFR L858R-T790M (Homo sapiens, UniProt P00533, L858R/T790M); experiment: EGFR degradation, Total EGFR (L858R-specific) HTRF, NCI-H1975; assay type: cell-based; conditions: 6 hours
T3 construct: NCI-H1975 (harboring EGFR heterozygous L858R-T790M mutations); host or cells: NCI-H1975
T3 sequence (P00533 25-1210 T790M/L858R): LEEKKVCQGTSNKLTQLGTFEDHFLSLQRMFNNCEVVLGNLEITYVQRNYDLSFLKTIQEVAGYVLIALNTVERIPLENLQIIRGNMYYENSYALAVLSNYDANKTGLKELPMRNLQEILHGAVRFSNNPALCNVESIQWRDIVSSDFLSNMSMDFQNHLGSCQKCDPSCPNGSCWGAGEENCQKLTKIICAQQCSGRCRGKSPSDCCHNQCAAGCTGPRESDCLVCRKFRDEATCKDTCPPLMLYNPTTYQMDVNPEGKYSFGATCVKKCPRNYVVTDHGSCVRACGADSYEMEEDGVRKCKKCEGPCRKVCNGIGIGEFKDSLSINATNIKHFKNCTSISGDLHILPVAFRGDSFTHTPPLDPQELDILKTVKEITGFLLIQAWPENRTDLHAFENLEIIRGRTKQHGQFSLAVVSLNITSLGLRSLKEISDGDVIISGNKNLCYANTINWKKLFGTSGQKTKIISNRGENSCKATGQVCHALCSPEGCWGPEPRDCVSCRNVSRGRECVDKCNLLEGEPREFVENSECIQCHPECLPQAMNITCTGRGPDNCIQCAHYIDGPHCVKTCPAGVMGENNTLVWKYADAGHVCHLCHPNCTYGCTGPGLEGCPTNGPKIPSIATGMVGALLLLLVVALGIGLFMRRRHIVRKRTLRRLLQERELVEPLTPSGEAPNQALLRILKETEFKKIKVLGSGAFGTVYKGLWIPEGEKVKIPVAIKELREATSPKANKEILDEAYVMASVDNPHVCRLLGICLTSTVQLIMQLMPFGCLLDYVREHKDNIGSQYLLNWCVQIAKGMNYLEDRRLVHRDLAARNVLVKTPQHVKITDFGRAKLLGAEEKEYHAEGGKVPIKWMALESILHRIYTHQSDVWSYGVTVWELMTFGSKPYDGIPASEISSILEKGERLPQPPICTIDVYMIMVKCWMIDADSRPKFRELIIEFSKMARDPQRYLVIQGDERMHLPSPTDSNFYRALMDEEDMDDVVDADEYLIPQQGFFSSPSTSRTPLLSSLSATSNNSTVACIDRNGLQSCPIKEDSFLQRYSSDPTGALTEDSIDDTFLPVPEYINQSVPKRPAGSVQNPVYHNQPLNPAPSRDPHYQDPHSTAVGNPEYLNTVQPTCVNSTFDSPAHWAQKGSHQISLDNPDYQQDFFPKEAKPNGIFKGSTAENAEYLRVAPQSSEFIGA
Method in brief: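 FRET signal from HTRF kits measured phospho-EGFR at pY1068 or total EGFR after 6 h treatment at 37 °C. Compounds ran as 11-point half-log dilutions from 10 μM in duplicate, in cells in phenol red-free RPMI with 10% FBS. Concentrations giving 50% inhibition or degradation were reported as IC50 or DC50.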

[7] = target: T4, pY1068 EGFR L858R-T790M-C797S (Homo sapiens, UniProt P00533, C797S/L858R/T790M); experiment: Phospho-EGFR (pY1068) inhibition HTRF, NCI-H1975+CS; assay type: cell-based; conditions: 6 hours, read-out: pEGFR IC50
T4 construct: generated using CRISPR technology to introduce the additional C797S mutation by Horizon Discovery; host or cells: NCI-H1975+CS (CRISPR knock-in of C797S)
T4 sequence (P00533 25-1210 T790M/C797S/L858R): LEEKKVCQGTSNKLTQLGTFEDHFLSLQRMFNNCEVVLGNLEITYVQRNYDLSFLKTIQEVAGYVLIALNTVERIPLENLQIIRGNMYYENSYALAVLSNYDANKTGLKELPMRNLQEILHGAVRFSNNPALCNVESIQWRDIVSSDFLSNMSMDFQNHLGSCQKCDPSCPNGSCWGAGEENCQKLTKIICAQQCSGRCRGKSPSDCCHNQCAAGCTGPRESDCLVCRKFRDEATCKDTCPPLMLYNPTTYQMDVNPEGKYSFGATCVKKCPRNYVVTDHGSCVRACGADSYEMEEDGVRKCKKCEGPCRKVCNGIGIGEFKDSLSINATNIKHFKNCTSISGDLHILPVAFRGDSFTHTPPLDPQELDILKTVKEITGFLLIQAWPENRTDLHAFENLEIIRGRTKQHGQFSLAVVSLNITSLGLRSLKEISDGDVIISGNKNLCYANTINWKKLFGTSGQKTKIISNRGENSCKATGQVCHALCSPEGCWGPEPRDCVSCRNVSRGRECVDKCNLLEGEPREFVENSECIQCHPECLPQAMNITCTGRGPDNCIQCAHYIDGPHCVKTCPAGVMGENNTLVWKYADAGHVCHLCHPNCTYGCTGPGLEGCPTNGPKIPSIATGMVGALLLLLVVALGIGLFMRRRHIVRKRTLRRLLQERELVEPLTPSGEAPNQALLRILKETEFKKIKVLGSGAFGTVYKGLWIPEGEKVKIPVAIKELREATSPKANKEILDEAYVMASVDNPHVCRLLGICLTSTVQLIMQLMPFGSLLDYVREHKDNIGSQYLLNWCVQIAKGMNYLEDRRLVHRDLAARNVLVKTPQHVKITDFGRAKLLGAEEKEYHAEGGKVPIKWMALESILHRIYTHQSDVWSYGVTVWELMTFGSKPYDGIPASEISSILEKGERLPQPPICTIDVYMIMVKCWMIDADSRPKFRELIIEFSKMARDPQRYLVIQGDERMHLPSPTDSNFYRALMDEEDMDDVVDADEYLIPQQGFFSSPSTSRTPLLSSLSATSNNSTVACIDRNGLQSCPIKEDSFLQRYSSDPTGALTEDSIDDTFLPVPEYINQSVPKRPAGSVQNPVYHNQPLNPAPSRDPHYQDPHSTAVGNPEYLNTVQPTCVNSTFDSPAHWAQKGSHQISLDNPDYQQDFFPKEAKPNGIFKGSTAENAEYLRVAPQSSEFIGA
Text: as §3, §4

[8] = H1975 (L858R-T790M), read-out: tEGFR DC50
[9] = Table 9A, NCI-H1975 cells, Total EGFR HTRF, read-out: H1975 EGFR DC50

## O=C1CC[C@H](Nc2ccc(N3CCC(O)(CC(=O)N4CC5(C4)CN(c4ccc(-c6cc(F)c7c(c6)C(=O)N(C(C(=O)Nc6nccs6)c6ncn8c6CCC8)C7)cc4)C5)CC3)c(F)c2)C(=O)N1 (stereo partly drawn) [Compound 1, 2-(6,7-dihydro-5H-pyrrolo[1,2-c]imidazol-1-yl)-2-[6-[4-[2-[2-[1-[4-[[(3S)-2,6-dioxo-3-piperidyl]amino]-2-fluoro-phenyl]-4-hydroxy-4-piperidyl]acetyl]-2,6-diazaspiro[3.3]heptan-6-yl]phenyl]-4-fluoro-1-oxo-isoindolin-2-yl]-N-thiazol-2-yl-acetamide]
[1]
  phospho-ERK inhibition (western blot): inhibited
[2]
  GI50: 9 nM
[3]
  DC50: > 10000 nM
[4]
  IC50: > 10000 nM
[5]
  GI50: 21 nM
[6]; [8]
  DC50: 8 nM
[6]; [9]
  DC50: < 50 nM
[7]
  IC50: 10 nM

## Cn1nc(N2CCC(=O)NC2=O)c2ccc([C@H]3CCN(CC(=O)N4CC5(C4)CN(c4ccc(-c6cc(F)c7c(c6)C(=O)N(C(C(=O)Nc6nccs6)c6ncn8c6CCC8)C7)cc4)C5)CC3(F)F)cc21 (stereo partly drawn) [Compound 2, 2-(6,7-dihydro-5H-pyrrolo[1,2-c]imidazol-1-yl)-2-[6-[4-[2-[2-[(4R)-4-[3-(2,4-dioxohexahydropyrimidin-1-yl)-1-methyl-indazol-6-yl]-3,3-difluoro-1-piperidyl]acetyl]-2,6-diazaspiro[3.3]heptan-6-yl]phenyl]-4-fluoro-1-oxo-isoindolin-2-yl]-N-thiazol-2-yl-acetamide]
[2]
  GI50: 4 nM
[3]
  DC50: > 10000 nM
[4]
  IC50: > 10000 nM
[5]
  GI50: 9 nM
[6]; [8]
  DC50: 12 nM
[6]; [9]
  DC50: < 50 nM
[7]
  IC50: 29 nM
